# Patent US10702505B2, “Rifaximin” (CIPLA Limited, priority 2006, dated 2020)
# Like-named read-outs stand apart in the source and are kept apart here.
# Experiments:
# Type in all cases: physicochemical
# [1] = tapped density
# [2] = bulk density
# [3] = intrinsic dissolution of amorphous rifaximin against the α Form; conditions: 37±0.5° C., 100 rpm
# Protocol: Temperature: 37±0.5° C. Rotation speed: 100 rpm Particle size: Amorphous rifaximin—11 microns • α Form of rifaximin—13 microns
# [4] = 15 minutes, 1000 ml 0.1M sodium dihydrogen phosphate monohydrate + 4.5 g sodium lauryl sulphate
Structure (SMILES),tapped density [1],bulk density [2],intrinsic dissolution profile compared with α Form ([3]; 0.1M sodium dihydrogen phosphate monohydrate + sodium lauryl sulphate),"% Release [3, 4]","% Release ([3]; 30 minutes, same medium)","% Release ([3]; 45 minutes, same medium)","% Release ([3]; 60 minutes, same medium)","% Release ([3]; 120 minutes, same medium)","% Release ([3]; 180 minutes, same medium)","% Release ([3]; 240 minutes, same medium)","% Release ([3]; 360 minutes, same medium)","% Release ([3]; 480 minutes, same medium)","% Release ([3]; 600 minutes, same medium)","% Release ([3]; 720 minutes, same medium)","% Release ([3]; 960 minutes, same medium)","% Release ([3]; 1200 minutes, same medium)","% Release ([3]; 1400 minutes, same medium)",tapped density ([1]; listed as α Form rifaximin),bulk density ([2]; listed as α Form rifaximin)
"CO[C@H]1/C=C/O[C@@]2(C)Oc3c(C)c(O)c4c(O)c(c5c(nc6cc(C)ccn65)c4c3C2=O)NC(=O)/C(C)=C\C=C\[C@H](C)[C@H](O)[C@@H](C)[C@@H](O)[C@@H](C)[C@H](OC(C)=O)[C@@H]1C [Amorphous Rifaximin, (2S,16Z,18E,20S,21S,22R,23R,24R,25S,26 S,27S,28E)-5,6,21,23,25-pentahydroxy-27-methoxy-2,4,11,16,20,22,24,26-octamethyl-2,7-(epoxypentadeca-[1,11,13]trienimino)benzofuro[4,5-e]pyrido[1,2-a]-benzimida-zole-1,15(2H)-dione,25-acetate]",0.4 to 0.5 g/mL,0.3 to 0.4 g/mL,better dissolution profile than α Form,1.1%,1.9%,2.9%,3.7%,8.1%,12.6%,16.6%,24.7%,32.0%,39.5%,46.4%,60.4%,72.9%,83.0%,–,–
"CO[C@H]1/C=C/O[C@@]2(C)Oc3c(C)c(O)c4c(O)c(c5c(nc6cc(C)ccn65)c4c3C2=O)NC(=O)/C(C)=C\C=C\[C@H](C)[C@H](O)[C@@H](C)[C@@H](O)[C@@H](C)[C@H](OC(C)=O)[C@@H]1C [α Form of Rifaximin, (2S,16Z,18E,20S,21S,22R,23R,24R,25S,26 S,27S,28E)-5,6,21,23,25-pentahydroxy-27-methoxy-2,4,11,16,20,22,24,26-octamethyl-2,7-(epoxypentadeca-[1,11,13]trienimino)benzofuro[4,5-e]pyrido[1,2-a]-benzimida-zole-1,15(2H)-dione,25-acetate, reference compound]",–,–,–,0.8%,1.8%,3.0%,4.4%,11.0%,18.0%,24.6%,38.7%,47.5%,52.7%,56.4%,62.9%,67.8%,72.7%,0.3 to 0.4 g/mL,0.2 to 0.3 g/mL
